Columns and labels:
[1] = test system: sensory neurons myelinated by Schwann cells; experiment: Neuroprotection on myelinated sensory neuron/Schwann cell coculture, cisplatin poisoning, curative protocol (co-incubation 24 h); format: cell-based, rat
Text: The in vitro model used is a culture of sensory neurons myelinated by Schwann cells (Callizot et al., 2011, Exp Cell Res 317:2374-2383). This model, miniaturized in 96 wells, makes it possible to analyze the effects of molecules on the development of sensory neurons and on the myelination of axons by Schwann cells.
(§1) Protocol of the coculture of sensory neurons and Schwann cells: Female rats with 15 days gestation were killed by cervical dislocation (Wistar rats; January Lab) and the fetuses were removed from the uterus. Embryonic DRGs were collected and placed in an icy medium of Leibovitz 15 (L15; PanBiotech, Ref P04-27055, batch: 4590720) containing 2% Penicillin-Streptomycin (PS; PanBiotech, ref: P06-07100, batch: 7390220) and 1% bovine serum albumin (BSA; PanBiotech, Ref: P06-1391100, batch: H200403). DRGs were dissociated by trypsinization for 20 minutes (min) at 37° C. (Trypsin EDTA 1×; PanBiotech, Ref: P10-023100, batch: 3590720). The reaction was stopped by the addition of Dulbecco's modified Eagle medium (DMEM; PanBiotech, Ref: P04-03600, batch: 4080720) containing DNase I grade II (0.1 mg/ml; PanBiotech, Ref: P60-37780100, batch: H181015) and 10% fetal calf serum (FCS; Invitrogen, Ref: 10270106, batch: 2232584). The cells were then mechanically dissociated by 3 passes through a 10 ml pipette. The cells were then centrifuged at 180×g for 10 min at +4° C. on a layer of BSA (3.5%) in medium L15. The supernatant was discarded and the cell pellets were resuspended in a defined culture medium consisting of Neurobasal (Invitrogen, Ref: 21103049, batch: 2176355) supplemented with 2% B27; (Invitrogen, ref: 17504-044, batch: 2193553), L-glutamine (2 mM; PanBiotech, Ref: P04-80100, batch: 3301019), 2% PS and 50 ng/mL NGF (Sigma, Ref: N1408, L batch batch: SLCG1641). The viable cells were then counted in a Neubauer cytometer using the trypan blue exclusion test. The cells were seeded at a density of 12000 cells/wells in 96-well plates (pre-coated with poly-D-lysine; Greiner, Ref: 655940, batch: E20093UL) and have been grown at 37° C. in humidified air (95%)/C02 (5%) atmosphere. Half of the middle was changed every 2 days with fresh middle. The cells are held for 7 to 12 days to allow the proliferation of Schwann cells and sensory neurons. On day 8, the medium is supplemented with 50 μg/mL of ascorbic acid (AA; Sigma, Ref 092902, batch: 05316HJ-438) to initiate the differentiation of Schwann basal cells into myelinating Schwann cells.
Under these conditions, after 5 days of culture with AA, the myelin sheaths are detected with an anti-MAG antibody ([…]), an early marker of myelin. • A. Study of the neuroprotective properties of pluri-ionic compositions on myelinated sensory neurons after Cisplatin poisoning: curative protocol
Cis-diammineplatin (II) dichloride (cisplatin; Sigma, ref: P4394, batch: MKCL0026) was reconstituted in medium at 10 mg/ml (stock solution). The control environment was prepared under the same conditions. After 12 days of culture with AA, the primary sensory neurons were treated for 24 hours with pluri-ionic compositions in the presence or absence of cisplatin poisoning. The cisplatin preparation was used on neurons at a final concentration of 12 μM diluted in control medium for 24 hours of incubation. The pluri-ionic compositions tested are obtained by dissolution in water of lithium chloride, magnesium chloride hexahydrate and potassium chloride, and contain: • 1. KY21400: Li 10.37 mmol/kg, Mg 2.27 mmol/kg, K 16.88 mmol/kg • 2. KY21310: Li 5.76 mmol/kg, Mg 1.26 mmol/kg, K 9.38 mmol/kg • 3. KY21200: Li 1.73 mmol/kg, Mg 0.38 mmol/kg, K 2.81 mmol/kg […]

[2] = test system: sensory neurons myelinated by Schwann cells; experiment: Toxicity of isolated or combined ions on sensory neurons without cisplatin; format: cell-based, rat; conditions: Table 1; isolated or combined ions (chlorides), no cisplatin
Text: as §1
The following conditions were tested: • Control medium • Control+cisplatin (12 μM, 24 h) • Pluri-ionic compositions KY21400, KY21310 or KY21200+cisplatin (12 μM, 24 h) • Pluri-ionic compositions KY21400, KY21310 or KY21200 • Control+individual ions at various concentrations • Control+cisplatin (12 μM, 24 h)+individual ions at various concentrations
For the evaluation of the toxicity of individual ions, the cells are fixed after 3 days of treatment. The cells are incubated with an anti-beta-tubulin mouse monoclonal antibody (1/2000, Sigma; Ref T8660-.2 mL; batch: 034M4790V) in a blocking buffer at 4° C. for 12 hours.
The cell nuclei were labeled with a fluorescent marker (Hoechst's solution, Sigma; ref: H-33258, batch: 046M4048V) in the same buffer.
For each condition, 20 images per well were taken using InCell Analyzer™ 2200 (GE Healthcare) with a magnification of 20×. The images of each well of culture were taken under the same conditions. The analysis was performed using Developer software (GE Healthcare). A total of 6 data per experimental condition was provided.
In parallel, the effect of isolated or combined ions two by two on the survival of sensory neurons and the length of neurites was also evaluated under the same conditions. The solutions are all prepared from the chlorides of the ions tested.

[3] = test system: rat myelinated primary sensory neurons; experiment: Neuroprotection on rat myelinated primary sensory neurons after cisplatin injury, protection protocol (2 h pretreatment); format: cell-based
Text: as §1
Cis-diammineplatin (II) dichloride (cisplatin; Sigma, ref: P4394, batch: MKCL0026) was reconstituted in medium at 10 mg/ml (stock solution). The control environment was prepared under the same conditions. […]
The following conditions were assessed: • Control medium • Control+cisplatin (12 μM, 24 h) • Pluri-ionic compositions KY21400, KY21310 or KY21200+cisplatin (12 μM, 24 h) • Pluri-ionic compositions KY21400, KY21310 or KY21200.
This study was carried out with 6 wells per condition and duplicated for validation of the results. The data taken and analyzed are the added results of the 2 studies. […]

[4] = Table 2, isolated ions with cisplatin 12 μM, 24 h
[5] = concentrations ranging from 0.15 mg/kg to 1.2 mg/kg, same conditions
[6] = Table 1, with cisplatin 12 μM, 24 h, composition incubated at the same time
[7] = cisplatin 12 μM, 24 h, composition co-incubated

| Structure (SMILES) | Average percentage of neurite length relative to control [1, 4] | Mean percentage of sensory neurons number relative to control [1, 4] | Mean percentage of neurite length relative to control [2] | Mean percentage of sensory neurons number relative to control [2] | also measured |
| --- | --- | --- | --- | --- | --- |
| [K+] [K 366 mg/kg = 9.38 mmol/kg] | 91% | 58% | 115% | 117% |  |
| [Cl-].[Li+] [Li 40 mg/kg = 5.8 mmol/kg] | 80% | 66% | 77% | 97% |  |
| [Mn+2] [Manganese] |  |  |  |  | effect on neurite length [1, 5]: without demonstrating any significant effect; effect on neuron survival [1, 5]: without demonstrating any significant effect; effect on the myelin sheath length [3, 5]: without demonstrating any significant effect |
| [Cl-].[Cl-].[Mg+2] [Mg 30.8 mg/kg = 1.27 mmol/kg] |  |  | 98% | 108% |  |
| N.N.[Cl][Pt][Cl] [cisplatin, Cis-diammineplatin (II) dichloride] | 63-75% | 51-57% |  |  | Mean percentage of neurite length relative to control [1, 6]: 35%; Mean percentage of sensory neurons number relative to control [1, 6]: 39%; Mean percentage of sensory neurons number relative to control ([1]; Table 4, with cisplatin (12 mm, 24 h)): 53.1%; loss of myelin [1, 7]: 78%; loss of neurites [1, 7]: 65%; cell death of sensory neurons (dead cells) ([1]; cisplatin 12 μM, 24 h, composition during the 24 h of cisplatin lesion): 61%; loss of neurites ([3]; cisplatin 12 μM, 24 h): 51%; cell death ([3]; cisplatin 12 μM, 24 h, composition two hours before and during cisplatin injury): 64%; loss of myelin ([3]; cisplatin 12 μM, 24 h, two-hour pre-treatment with composition): 69% |
